Here are results for ten molecules from ChEMBL document CHEMBL1201862, “PubChem BioAssay data set” (2004).

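A five-concentration, 48-hour dose response in 96-well plates underlies each endpoint, interpolated linearly between surrounding concentrations. GI50: concentration for 50% inhibition of growth.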 The source made the active and inactive calls. Rule as the data show it: active = GI50 up to about 1.1 µM and inactive = higher.

Among the test systems are OVCAR-3; NCI-H522; K562; UACC-257; MDA-MB-435; SF-268; SNB-75; SF-295; CCRF-CEM; MOLT-4; SNB-19; OVCAR-5; SN12C; HCC 2998; CAKI-1; SK-MEL-28; TK-10; HOP-92; UO-31; UACC-62.
Holding throughout (test): inhibition of tumour cell growth, NCI panel, 48 h

Take `CC(=O)Nc1[nH]c(C#N)nc1C#N`: the GI50 in the experiment on OVCAR-3, in the experiment with NCI-H522, with K562, in the experiment on UACC-257, in the experiment on MDA-MB-435 and in the experiment with SF-268 was > 100 µM (inactive) throughout. Besides, the GI50 in the experiment on SNB-75, in the experiment on SF-295, in the experiment on CCRF-CEM, with MOLT-4, in the experiment with SNB-19 and in the experiment on OVCAR-5 was > 100 µM (inactive) in each case. Also, the GI50 in the experiment on SN12C, in the experiment on HCC 2998, in the experiment on CAKI-1, in the experiment on SK-MEL-28, in the experiment on TK-10 and in the experiment with HOP-92 was > 100 µM (inactive) throughout. The GI50 with UO-31 and in the experiment on UACC-62 was > 100 µM (inactive) throughout.

Turning to `CC1(C)CC(=O)C(CC2C(=O)c3ccccc3C2=O)C(=O)C1C(=O)C(=O)Nc1cccc2ccc(O)cc12` (configuration not stated), the GI50 in the experiment on OVCAR-3 was 48.9 µM (inactive); with NCI-H522, > 100 µM (inactive); in the experiment on K562, 40.9 µM (inactive); with UACC-257, > 100 µM (inactive); with MDA-MB-435, > 100 µM (inactive); in the experiment on SF-268 it was > 100 µM (inactive). The GI50 was 78 µM (inactive) with SNB-75; 92.3 µM (inactive) in the experiment with SF-295; < 0.01 µM (active) in the experiment with CCRF-CEM; 53.5 µM (inactive) in the experiment with MOLT-4; > 100 µM (inactive) in the experiment on SNB-19; > 100 µM (inactive) in the experiment on OVCAR-5. In addition, the GI50 with SN12C is > 100 µM (inactive); in the experiment on HCC 2998, > 100 µM (inactive); with CAKI-1, 34.4 µM (inactive); in the experiment with SK-MEL-28, > 100 µM (inactive); in the experiment on TK-10, 54 µM (inactive); in the experiment on HOP-92 it was 70.3 µM (inactive). Moreover, the GI50 with UO-31 is 33.8 µM (inactive); with UACC-62, > 100 µM (inactive).

Consider `c1ccc2c(c1)[nH]c1c3ccccc3sc21`, for which the GI50 is > 100 µM (inactive) in the experiment on OVCAR-3; > 100 µM (inactive) in the experiment on NCI-H522; > 100 µM (inactive) in the experiment on K562; 36.5 µM (inactive) in the experiment on UACC-257; 99.1 µM (inactive) in the experiment with MDA-MB-435; > 100 µM (inactive) in the experiment on SF-268. In addition, the GI50 in the experiment on SNB-75 was 8.41 µM (inactive); in the experiment on SF-295, 38.1 µM (inactive); in the experiment with CCRF-CEM, > 100 µM (inactive); with MOLT-4 it was > 100 µM (inactive); with SNB-19, > 100 µM (inactive); in the experiment on OVCAR-5 it was > 100 µM (inactive). The GI50 in the experiment with SN12C, with HCC 2998, with CAKI-1, with SK-MEL-28, with TK-10 and with HOP-92 was > 100 µM (inactive) in each case. The GI50 in the experiment on UO-31 and with UACC-62 was > 100 µM (inactive) in each case.

As to `CC(=O)c1ccccc1NCC(=O)Nn1cnc2ccc(S(=O)(=O)Nc3ccccc3C(C)=O)cc2c1=O`, the GI50 with OVCAR-3, with NCI-H522, with K562, with UACC-257, with MDA-MB-435 and in the experiment on SF-268 was > 100 µM (inactive) in each case. For the same molecule, the GI50 with SNB-75, with SF-295, with CCRF-CEM, in the experiment on MOLT-4, with SNB-19 and in the experiment with OVCAR-5 was > 100 µM (inactive) each time. For the same molecule, the GI50 with SN12C, with HCC 2998, in the experiment with CAKI-1, with SK-MEL-28, in the experiment with TK-10 and with HOP-92 was > 100 µM (inactive) each time. In addition, the GI50 with UO-31 and with UACC-62 was > 100 µM (inactive) each time.

Regarding `N#CC(NNC(=O)c1ccccc1O)c1c(O)ccc2ccccc12` (configuration not stated), the GI50 is 2.54 µM (inactive) in the experiment with OVCAR-3; 4.42 µM (inactive) in the experiment with NCI-H522; 2.9 µM (inactive) in the experiment with K562; 3.67 µM (inactive) in the experiment on UACC-257; 8.53 µM (inactive) with MDA-MB-435; 3.24 µM (inactive) with SF-268. The GI50 in the experiment with SNB-75 was 7.31 µM (inactive); in the experiment with SF-295 it was 4.78 µM (inactive); in the experiment with CCRF-CEM, 0.962 µM (active); in the experiment on MOLT-4, 2.26 µM (inactive); in the experiment on SNB-19 it was 13.6 µM (inactive); in the experiment with OVCAR-5, 4.38 µM (inactive). Further, the GI50 in the experiment on SN12C is 7.64 µM (inactive); in the experiment with HCC 2998, 9.55 µM (inactive); in the experiment with CAKI-1, 4.18 µM (inactive); in the experiment on SK-MEL-28, 9.33 µM (inactive); with TK-10 it was 4.7 µM (inactive); in the experiment on HOP-92, 5.71 µM (inactive). For the same molecule, the GI50 with UO-31 is 2.92 µM (inactive); with UACC-62 it was 2.61 µM (inactive).

On to `O=C(CC1C=CCS1(=O)=O)NCc1ccccc1` (configuration not stated), for which the GI50 in the experiment on OVCAR-3, in the experiment with NCI-H522, with K562, in the experiment on UACC-257, in the experiment on MDA-MB-435 and in the experiment on SF-268 was > 100 µM (inactive) throughout. The GI50 with SNB-75, in the experiment on SF-295, with CCRF-CEM, in the experiment with MOLT-4, in the experiment with SNB-19 and in the experiment on OVCAR-5 was > 100 µM (inactive) in each case. Further, the GI50 in the experiment with SN12C, in the experiment on HCC 2998, in the experiment on CAKI-1, in the experiment with SK-MEL-28, with TK-10 and in the experiment on HOP-92 was > 100 µM (inactive) in each case. For the same molecule, the GI50 with UO-31 and with UACC-62 was > 100 µM (inactive) each time.

Regarding `O=C(O)/C=N\N=c1[nH]c2ccccc2[nH]1`, the GI50 in the experiment with OVCAR-3, with NCI-H522, in the experiment with K562, in the experiment with UACC-257, with MDA-MB-435 and in the experiment with SF-268 was > 100 µM (inactive) in each case. Moreover, the GI50 in the experiment with SNB-75, in the experiment with SF-295, in the experiment with CCRF-CEM, in the experiment with MOLT-4, with SNB-19 and in the experiment on OVCAR-5 was > 100 µM (inactive) in each case. Besides, the GI50 in the experiment with SN12C, in the experiment with HCC 2998, in the experiment with CAKI-1, in the experiment on SK-MEL-28, in the experiment on TK-10 and in the experiment with HOP-92 was > 100 µM (inactive) in each case. Besides, the GI50 in the experiment on UO-31 and with UACC-62 was > 100 µM (inactive) in each case.

For `CC(=O)O[C@H]1C(=O)[C@@]2(C)[C@H]([C@H](OC(=O)c3ccccc3)[C@]3(O)C[C@H](OC(=O)[C@H](O)[C@@H](NC(=O)c4ccc(N(C)C)cc4)c4ccccc4)C(C)=C1C3(C)C)[C@]1(OC(C)=O)CO[C@@H]1C[C@@H]2O`, the GI50 with OVCAR-3 is < 0.005 µM (active); in the experiment on NCI-H522, < 0.005 µM (active); with K562 it was < 0.005 µM (active); in the experiment with MDA-MB-435, < 0.005 µM (active); with SNB-75 it was < 0.005 µM (active); in the experiment with SF-295 it was 0.0119 µM (active). Further, the GI50 in the experiment on CCRF-CEM was < 0.005 µM (active); with MOLT-4 it was 0.00631 µM (active); in the experiment with SNB-19, < 0.005 µM (active); with OVCAR-5, < 0.005 µM (active); in the experiment on SN12C, < 0.005 µM (active); in the experiment on HCC 2998, < 0.005 µM (active). Also, the GI50 is 0.339 µM (active) with CAKI-1; > 50 µM (inactive) in the experiment on SK-MEL-28; 0.0723 µM (active) in the experiment on TK-10; > 28.8 µM (inactive) with HOP-92; 1.54 µM (inactive) with UO-31; < 0.005 µM (active) in the experiment with UACC-62.

For `O=C(O)c1ccccc1/N=N/c1c(O)c(S(=O)(=O)O)cc2cc(S(=O)(=O)O)ccc12`, the GI50 in the experiment with OVCAR-3, with NCI-H522, in the experiment with K562, in the experiment with UACC-257, in the experiment with MDA-MB-435 and with SF-268 was > 100 µM (inactive) throughout. Moreover, the GI50 in the experiment with SNB-75, with SF-295, in the experiment with CCRF-CEM, in the experiment on MOLT-4, in the experiment on SNB-19 and with OVCAR-5 was > 100 µM (inactive) in each case. The GI50 in the experiment with SN12C, in the experiment on HCC 2998, in the experiment on CAKI-1, in the experiment on SK-MEL-28, with TK-10 and with HOP-92 was > 100 µM (inactive) in each case. Also, the GI50 in the experiment on UO-31 and in the experiment on UACC-62 was > 100 µM (inactive) throughout.

Consider `NC(=S)N/N=C(\Cc1nc2ccc(Cl)cc2nc1O)C(=O)Nc1ccc(Cl)cc1`, for which the GI50 in the experiment with OVCAR-3, with NCI-H522, in the experiment with UACC-257, in the experiment on MDA-MB-435, in the experiment on SF-268 and with SNB-75 was > 100 µM (inactive) each time. For the same molecule, the GI50 in the experiment with SF-295, in the experiment with CCRF-CEM, in the experiment on MOLT-4, in the experiment on SNB-19, in the experiment with OVCAR-5 and in the experiment with SN12C was > 100 µM (inactive) throughout. The GI50 is > 100 µM (inactive) in the experiment on HCC 2998; > 100 µM (inactive) with CAKI-1; > 100 µM (inactive) with SK-MEL-28; > 100 µM (inactive) with TK-10; 40.3 µM (inactive) in the experiment with HOP-92; 40 µM (inactive) with UO-31. Moreover, the GI50 in the experiment with UACC-62 is > 100 µM (inactive).
